Laboratory results published in patent US8399493B2, “Pyridinone derivatives and their use as positive allosteric modulators of mGluR2-receptors” (Janssen Pharmaceuticals, Inc., priority 2004, dated 2013).

Columns and labels:
native rat mGluR2 = molecular target: T1, native rat mGluR2 (Rattus norvegicus, UniProt P31421); experiment: [35S]GTPγS binding assay using cortical rat brain membranes; assay type: biochemical; details: selective mGluR2 agonist such as LY379268; rat cortical membranes; 3 or 10 μM of positive allosteric modulator
T1 construct: from tissue; host or cells: rat brain cortex membranes (Sprague-Dawley rats, Charles River Laboratories)
T1 sequence (P31421 19-872): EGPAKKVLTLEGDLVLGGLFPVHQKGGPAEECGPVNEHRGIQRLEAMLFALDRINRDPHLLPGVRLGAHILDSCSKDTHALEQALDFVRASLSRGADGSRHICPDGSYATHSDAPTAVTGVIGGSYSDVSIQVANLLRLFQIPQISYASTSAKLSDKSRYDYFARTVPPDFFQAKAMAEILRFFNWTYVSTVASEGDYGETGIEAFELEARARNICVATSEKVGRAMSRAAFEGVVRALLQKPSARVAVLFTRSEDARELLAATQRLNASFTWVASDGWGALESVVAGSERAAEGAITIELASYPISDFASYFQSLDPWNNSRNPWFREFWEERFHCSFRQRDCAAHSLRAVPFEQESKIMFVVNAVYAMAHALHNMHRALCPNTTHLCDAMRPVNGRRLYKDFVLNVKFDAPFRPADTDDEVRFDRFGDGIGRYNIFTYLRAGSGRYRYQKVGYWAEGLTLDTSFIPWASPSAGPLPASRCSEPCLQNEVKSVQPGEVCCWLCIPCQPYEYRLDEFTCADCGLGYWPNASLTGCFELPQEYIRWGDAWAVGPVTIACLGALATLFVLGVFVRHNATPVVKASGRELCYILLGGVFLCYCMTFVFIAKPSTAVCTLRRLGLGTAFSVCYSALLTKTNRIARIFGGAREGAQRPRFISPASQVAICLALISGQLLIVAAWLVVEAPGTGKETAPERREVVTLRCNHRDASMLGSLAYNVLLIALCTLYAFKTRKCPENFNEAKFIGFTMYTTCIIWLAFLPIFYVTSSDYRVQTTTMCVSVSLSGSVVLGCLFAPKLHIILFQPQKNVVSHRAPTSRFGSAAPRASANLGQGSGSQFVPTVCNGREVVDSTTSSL
Excerpt: The [^35S]GTPγS binding is a functional membrane-based assay used to study G-protein coupled receptor (GPCR) function. This method is using a binding assay to assess the initial step in receptor-mediated G protein activation in membranes prepared from cells expressing recombinant GPCR or using membranes from discrete area of the rat brain. In brief, the assay is measuring the activation of G proteins by catalyzing the exchange of guanosine 5′-diphosphate (GDP) by guanosine 5′-triphosphate (GTP) at the α subunit. The GTP-bounded G proteins dissociate into two subunits, Gα-GTP and Gβγ, which in turn regulate intracellular enzymes and ion channels. GTP is rapidly hydrolysed by the Gα-subunit (GTPases) and the G protein is deactivated and ready for new GTP exchange cycle (Harper (1998) Curr Protoc Pharmacol 2.6.1-10, John Wiley & Sons, Inc.). [^35S]GTPγS, a non-hydrolyzed analogue of GTP, is used for this purpose.
This method is widely used to study receptor activation of G protein in membranes prepared from rat brain tissue, including mGluR2 receptors (Schaffhauser et al 2003, Pinkerton et al, 2004). mGluR2 receptors are expressed in the rat brain cortex (Mutel et al (1998) J. Neurochem. 71:2558-64; Schaffhauser et al (1998) Mol. Pharmacol. 53:228-33) and are coupled to Gαi-protein, a preferential coupling for this method.
[^35S]GTPγS binding assay using cortical rat brain membranes preparation was used and adapted from Schaffhauser et al ((2003) Mol. Pharmacol. 4:798-810) for the detection of the positive allosteric modulator properties of the compounds of this invention on native rat mGluR2. In order to eliminate the possible interference with group III Gαi-protein coupled mGluRs (mGluR4, mGluR7, mGluR8; mGluR6 is not expressed in the cortex (Laurie et al (1997) Neuropharmacol. 36:145-52)), the potentiation of the response to a selective mGluR2 agonist, such as DCG-IV (Cartmell et al. (1998) Br. J. Pharmacol. 123(3):497-504) or LY379268 (Monn et al. (1999) J. Med. Chem 42:1027-40), by compounds described in the present invention was performed.
Cortices were dissected out from brains of 200-300 g Sprague-Dawley rats (Charles River Laboratories, L'Arbresle, France). Tissues were homogenized in 6 volumes (vol/wt) of 10% sucrose at 4° C. using a glass-teflon homogenizer. The homogenate was centrifuged at 1250 g for 10 min, and the supernatant was centrifuged at 40,000 g for 20 min (4° C.). The pellet was resuspended in 25 ml water using a Polytron disrupter (Kinematica AG, Luzern, Switzerland) and centrifuged for 10 min at 3000 g. (4° C.). The supernatant was centrifuged at 40,000 g for 20 min (4° C.). The supernatant was discarded and the pellet washed twice by resuspension in 10 volumes 5 mM HEPES-KOH, pH 7.4. The homogenate was frozen and thawed twice and centrifuged at 40,000 g for 20 min. The final pellet was resuspended in 5 mM HEPES-KOH, pH 7.4 and stored at −80° C. before its use. Protein concentration was determined by the Bradford method (Bio-Rad protein assay, Reinach, Switzerland) with bovine serum albumin as standard.
Measurement of mGluR2 positive allosteric modulators properties in rat cortical membranes was performed as follows: rat cortical membrane (1.5 μg) were incubated in 96-well microplates for 15 min at 30° C. in assay buffer (50 mM HEPES pH 7.4, 100 mM NaCl, 5 mM MgCl2, 10 μM GDP, 10 μg/ml saponin, EGTA 0.2 mM) with increasing concentrations of positive allosteric modulator (from 1 nM to 10 μM) and a minimal concentration of DCG-IV or LY379268, a selective mGluR2 agonist, that has been determined in previous experiments and that corresponds to the EC20, a concentration that gives 20% of the maximal response of the agonist, and is in accordance to published data (Pin et al. (1999) Eur. J. Pharmacol. 375:277-294). […]

| Compound | Activity: left-ward shift of agonist mGluR2 concentration-response curve (native rat mGluR2) | melting point [°C] |
| --- | --- | --- |
| O=C(O)CCc1ccc(-c2ccc(=O)n(Cc3ccc(Cl)cc3)c2)cc1 [2-32] | ++ (left-ward shift of agonist mGluR2 concentration-response curve [2- to 3.5-fold]) | 185 |
| CS(=O)(=O)Nc1cccc(-c2ccc(=O)n(Cc3ccc(Cl)cc3)c2)c1 [2-55] | ++ (left-ward shift of agonist mGluR2 concentration-response curve [2- to 3.5-fold]) | 169 |
| Cc1ccc(-c2ccc(=O)n(Cc3ccc(Cl)cc3)c2)nc1 [2-61] | ++ (left-ward shift of agonist mGluR2 concentration-response curve [2- to 3.5-fold]) | 135 |
| COc1cccc(Cc2ccc(=O)n(Cc3ccc(Cl)cc3)c2)c1 [3-02, 5-(3-Methoxybenzyl)-1-(4-chlorobenzyl)pyridin-2(1H)-one] | ++ (left-ward shift of agonist mGluR2 concentration-response curve [2- to 3.5-fold]) | – |
| COc1ccc(-c2ccc(=O)n(Cc3ccc(Cl)cc3)c2)cc1 [4-20] | +++ (left-ward shift of agonist mGluR2 concentration-response curve [>3.5]) | 142 |
| COc1ccc(-c2ccc(=O)n(Cc3ccc(C(F)(F)F)nc3)c2)cc1.Cl [4-47, 5-(4-Methoxyphenyl)-1-((6-(trifluoromethyl)pyridin-3-yl)methyl)-pyridin-2(1H)-one hydrochloride] | +++ (left-ward shift of agonist mGluR2 concentration-response curve [>3.5]) | 168 |
| COc1ccc(-c2ccc(=O)n(Cc3ccc(F)c(F)c3)c2)cn1 [6-16] | ++ (left-ward shift of agonist mGluR2 concentration-response curve [2- to 3.5-fold]) | 120 |
| CC(=O)Nc1ccc(-c2ccc(=O)n(Cc3ccc(Cl)cc3F)c2)cc1 [6-58] | – | 230 |
| CC(=O)NCc1cccc(-c2ccc(=O)n(Cc3ccc(Cl)cc3F)c2)c1 [6-60] | – | 143 |
| CC(=O)NCc1ccc(-c2ccc(=O)n(Cc3ccc(Cl)cc3F)c2)cc1 [6-61] | – | 150 |
| O=C1CCCN1CCOc1ccc(-c2ccc(=O)n(Cc3ccc(Cl)cc3F)c2)cc1 [6-62] | – | 180 |
| Cc1cc(COc2ccc(-c3ccc(=O)n(Cc4ccc(Cl)cc4F)c3)cc2)no1 [6-63] | – | 135 |
| O=c1ccc(-c2ccc(OCc3nn[nH]n3)cc2)cn1Cc1ccc(Cl)cc1F [6-65, 5-(4-((2H-Tetrazol-5-yl)methoxy)phenyl)-1-(4-chloro-2-fluorobenzyl)pyridin-2(1H)-one] | +++ (left-ward shift of agonist mGluR2 concentration-response curve [>3.5]) | 197 |
| Cc1nc(COc2ccc(-c3ccc(=O)n(Cc4ccc(Cl)cc4F)c3)cc2)cs1 [6-66] | – | 90 |
| O=c1ccc(-c2cccc(-c3nn[nH]n3)c2)cn1Cc1ccc(Cl)cc1F [6-67] | – | 240 |
| O=c1ccc(-c2ccc(-c3nnn[nH]3)cc2)cn1Cc1ccc(Cl)cc1F [6-68] | – | 241 |
| O=c1ccc(-c2ccc3sccc3c2)cn1Cc1ccc(Cl)cc1F [6-69, 1-(4-Chloro-2-fluorobenzyl)-5-(benzo[b]thiophen-5-yl)pyridin-2(1H)-one] | – | 110 |
| CS(=O)(=O)NCCOc1ccc(-c2ccc(=O)n(Cc3ccc(Cl)cc3F)c2)cc1 [6-70] | – | 139 |
| CS(=O)(=O)NCCCOc1ccc(-c2ccc(=O)n(Cc3ccc(Cl)cc3F)c2)cc1 [6-71] | – | 157 |

| Compound | Activity: left-ward shift of agonist mGluR2 concentration-response curve (native rat mGluR2) | melting point [°C] |
| --- | --- | --- |
| CS(=O)(=O)NCc1cccc(-c2ccc(=O)n(Cc3ccc(Cl)cc3F)c2)c1 [6-72] | – | 110 |
| CS(=O)(=O)NCc1ccc(-c2ccc(=O)n(Cc3ccc(Cl)cc3F)c2)cc1 [6-73] | ++ (left-ward shift of agonist mGluR2 concentration-response curve [2- to 3.5-fold]) | 165 |
| O=c1ccc(-c2ccc(S(=O)(=O)N3CCOCC3)cc2)cn1Cc1ccc(Cl)cc1F [6-74] | – | 141 |
| O=c1ccc(-c2ccc(S(=O)(=O)N3CCCC3)cc2)cn1Cc1ccc(Cl)cc1F [6-75] | – | 177 |
| COc1ccc(Cn2cc(-c3ccc(C(C)=O)cc3)ccc2=O)cc1 [6-76] | – | 97 |
| COc1ccc(Cn2cc(-c3ccc(C#N)cc3)ccc2=O)cc1 [6-77] | – | 134 |
| COc1ccc(-c2ccc(=O)n(Cc3ccc(C(F)(F)F)nc3)c2)cn1 [6-80] | – | 160 |
| O=c1ccc(-c2ccccc2)cn1Cc1nc2ccccc2s1 [6-81] | – | 149 |
| Cl.O=c1ccc(C#Cc2cccnc2)cn1Cc1cccc(F)c1 [7-02, 1-(3-Fluorobenzyl)-5-(2-(pyridin-3-yl)ethynyl)pyridin-2(1H)-one hydrochloride] | + (left-ward shift of agonist mGluR2 concentration-response curve [<2]) | 179 |
| O=c1cc(OCCc2ccccc2)ccn1Cc1cccc(F)c1 [7-03, 1-(3-Fluorobenzyl)-4-phenethoxypyridin-2(1H)-one] | – | 93 |
| CC(C)CCn1cc(-c2cccc(NS(C)(=O)=O)c2)ccc1=O [8-02, N-(3-(1-Isopentyl-6-oxo-1,6-dihydropyridin-3-yl)phenyl)methane-sulfonamide] | – | 159 |
| COc1ccc(-c2cc(CO)c(=O)n(Cc3ccc(Cl)cc3)c2)cc1 [9-08, 1-(4-Chlorobenzyl)-3-(hydroxymethyl)-5-(4-methoxyphenyl)pyridin-2(1H)-one] | – | 128 |
| COCCc1cc(=O)n(Cc2ccc(Cl)cc2)cc1-c1ccc(OC)cc1 [9-17, 1-(4-Chlorobenzyl)-4-(2-methoxyethyl)-5-(4-methoxyphenyl)pyridin-2(1H)-one] | + (left-ward shift of agonist mGluR2 concentration-response curve [<2]) | – |
| COc1ccc(-c2cn(Cc3ccc(Cl)cc3F)c(=O)cc2OC)cc1 [9-18, 1-(4-Chloro-2-fluorobenzyl)-4-methoxy-5-(4-methoxyphenyl)pyridin-2(1H)-one] | + (left-ward shift of agonist mGluR2 concentration-response curve [<2]) | – |
| CC(C)CCn1ccc(-c2cccs2)c(C#N)c1=O [10-28, 1,2-Dihydro-1-isopentyl-2-oxo-4-(thiophen-2-yl)pyridine-3-carbonitrile] | +++ (left-ward shift of agonist mGluR2 concentration-response curve [>3.5]) | 123 |
| O=c1ccc(CNc2ccccc2)cn1Cc1ccc(Cl)cc1 [16-01] | – | 142 |
| COc1ccc(OCc2ccc(=O)n(Cc3ccc(Cl)cc3)c2)cc1 [16-02, 1-(4-Chlorobenzyl)-5-((4-methoxyphenoxy)methyl)pyridin-2(1H)-one] | – | 114 |
| O=c1ccc(COc2ccccc2)cn1Cc1ccc(F)c(F)c1 [16-03, 1-(3,4-Difluorobenzyl)-5-(phenoxymethyl)pyridin-2(1H)-one] | – | 89 |
| O=c1ccc(COc2ccccc2)cn1Cc1ccc(Cl)cc1F [16-04] | – | 86 |
